Laboratory results published in ChEMBL document CHEMBL3108669, “Modulation of reactive oxygen species photogeneration of bacteriopheophorbide a derivatives by exocyclic E-ring opening and charge modifications” (J Med Chem, 2014).

Tests used:
Assay type in all cases: physicochemical
[1] = Induction of ROS generation in RPMI-1640 cell culture media/DMSO/cremophor solution by SOSG-based fluorescence assay
[2] = Induction of ROS generation in water/cremophor/DMF solution by AUR-based fluorescence assay; details: buffer
[3] = Induction of ROS generation in MeOH/PBS solution by AUR-based fluorescence assay; details: buffer
[4] = Induction of ROS generation in water/cremophor/DMF solution by SOSG-based fluorescence assay; details: buffer
[5] = Induction of ROS generation in RPMI-1640 cell culture media/DMSO/cremophor solution by AUR-based fluorescence assay
[6] = Induction of ROS generation in MeOH/PBS solution by SOSG-based fluorescence assay; details: buffer

Measured: Activity

CC[C@H]1c2cc3[nH]c(c(CC(=O)OC)c4nc(cc5[nH]c(cc(n2)[C@@H]1C)c(C(C)=O)c5C)[C@@H](C)[C@@H]4CCC(=O)OC)c(C(=O)NCCS(=O)(=O)O)c3C
Active: all assays above

CC[C@H]1c2cc3[nH]c4c(c3C)C(=O)[C@H](C(=O)OC)c4c3nc(cc4[nH]c(cc(n2)[C@@H]1C)c(C(C)=O)c4C)[C@@H](C)[C@@H]3CCC(=O)OC
Active: all assays above

CC[C@H]1c2cc3[nH]c(c(CC(=O)OC)c4nc(cc5[nH]c(cc(n2)[C@@H]1C)c(C(C)=O)c5C)[C@@H](C)[C@@H]4CCC(=O)OCC[N+](C)(C)C)c(C(=O)NCCS(=O)(=O)O)c3C
Active: all assays above

CC[C@H]1c2cc3[nH]c(c(CC(=O)OC)c4nc(cc5[nH]c(cc(n2)[C@@H]1C)c(C(C)=O)c5C)[C@@H](C)[C@@H]4CCC(=O)NCCS(=O)(=O)O)c(C(=O)NCCS(=O)(=O)O)c3C
Active: all assays above

CC[C@H]1c2cc3[nH]c(c(CC(=O)OC)c4nc(cc5[nH]c(cc(n2)[C@@H]1C)c(C(C)=O)c5C)[C@@H](C)[C@@H]4CCC(=O)O)c(C(=O)NCCS(=O)(=O)O)c3C
Active: all assays above

CC[C@H]1c2cc3[nH]c4c(c3C)C(=O)[C@H](C(=O)OC)c4c3nc(cc4[nH]c(cc(n2)[C@@H]1C)c(C(C)=O)c4C)[C@@H](C)[C@@H]3CCC(=O)OCC[N+](C)(C)C
Active: all assays above

CC[C@H]1c2cc3[nH]c4c(c3C)C(=O)[C@H](C(=O)OC)c4c3nc(cc4[nH]c(cc(n2)[C@@H]1C)c(C(C)=O)c4C)[C@@H](C)[C@@H]3CCC(=O)O
Active: all assays above

CC[C@H]1c2cc3[nH]c4c(c3C)C(=O)[C@H](C(=O)OC)c4c3nc(cc4[nH]c(cc(n2)[C@@H]1C)c(C(C)=O)c4C)[C@@H](C)[C@@H]3CCC(=O)NCCS(=O)(=O)O
Active: all assays above
